According to patent US20260355192A1, “PROPHYLACTIC OR THERAPEUTIC AGENT FOR PERIOSTIN-MEDIATED DISEASE AND PRURITUS ASSOCIATED THEREWITH” (SAGA UNIVERSITY, priority 2022, published 2026):
Blank lines part the entries; values can stand above or below the molecule they belong to.

What was measured:
[1] = system: scratching behaviors in FADS mice; experiment: Scratching behaviors in FADS mice upon single systemic administration of αvβ3 integrin inhibitors; assay type: in vivo, mouse (FADS, Nestin-cre/Ikk2ff); settings: for % Change from baseline in the number of scratchings (mean ± standard error): 53.7 μmol/kg i.p., single, 60 minutes after administration vs before administration; for grade of effect on % change from the baseline in the number of scratchings: single i.p., 53.7 μmol/kg (GLPG-0187 5.37 μmol/kg), paired t-test
Text: Nestin-cre transgenic mice were crossed with IKK2^ff mice to prepare Nestin-cre/Ikk2^ff mice specifically lacking IKK2 in their facial skin fibroblasts (Nunomura S, et al. J Invest Dermatol. 139:1274-1283, 2019). These mice inevitably develop atopic dermatitis-like rash limited to the face and intense itchy symptoms, and were therefore designated as Facial Atopic Dermatitis with Scratching (FADS) mice. […] For evaluation of the prophylactic or therapeutic agent of the present invention, FADS mice at 3 to 4 weeks of age or older were used because of showing spontaneous scratching behaviors. It should be noted that in this Example section, the above compound of formula (I) (more particularly “CP4715”) was used as the prophylactic or therapeutic agent of the present invention.
FADS mice were acclimated for 20 minutes to the environment of a recording cage, and then recorded with a video camera. The recorded videos were replayed, and scratching behaviors were counted assuming that hind paw scratching to the face and the subsequent movement of toe licking or paw lowering to the ground were regarded as one cycle of scratching behavior.
Prior to the administration of the above αvβ3 integrin inhibitors, FADS mice were recorded for 60 minutes with a video camera and then allowed to rest for 15 minutes. The compounds except for GLPG-0187 were each dissolved at 89.5 mM in a diluent (physiological saline containing 50% DMSO and 89.5 mM HCL), from which an amount corresponding to 53.7 μmol/kg per mouse was then taken and diluted with 0.3 mL of PBS, and then administered intraperitoneally. […] Mice administered with 0.3 mL of PBS containing an equal amount of the diluent as calculated based on the body weight were used as a control group.
The mice were recorded for 60 minutes with a video camera immediately after administration of the above αvβ3 integrin inhibitors. The number of scratchings before administration was used as a baseline, and % change from the baseline after administration was calculated for each compound. For statistical analysis, paired t-test was used. A P-value of less than 0.05 was considered to be statistically significant. The effect of an inhibitor whose mean change from the baseline was −65% or more at a P-value of less than 0.01 was expressed as “++”; the effect of an inhibitor whose mean change from the baseline was −60% or less at a P-value of less than 0.05 was expressed as “+”; and the effect of an inhibitor whose mean change from the baseline was −60% or less at a P-value of 0.05 or higher was expressed as “−.”

[2] = target: T1, integrin αvβ3 (Homo sapiens, UniProt P05106+P06756); experiment: Inhibition of periostin-dependent adhesion of SW480 cells expressing integrin αvβ3; assay type: cell-based; settings: immobilized recombinant human periostin, FIG. 6; for IC50: SW480 cells expressing human integrin β3, compounds at 0.001-1 μM, read-out: 50% inhibition concentration (IC50 value) for cell adhesion inhibitory activity; for cell adhesion inhibitory effect (in words): SW480 cells expressing integrin αvβ3
T1 construct: SW480 cells, a human colon cancer cell line not expressing integrin β3; expressed in transfected cells; host or cells: SW480 cells (human colon cancer) stably expressing human integrin β3
Experimental: For use in cell adhesion experiments, SW480 cells, a human colon cancer cell line not expressing integrin β3, were genetically engineered to stably express human integrin β3 (Nanri Y, et al. Am J Respir Cell Mol Biol. 62:204-216, 2020). The compounds shown in Table 1 were examined for their inhibitory activity against adhesion between integrin αvβ3 and periostin according to the following procedures. First, a 96-well plate was treated with 10 μg/mL recombinant human periostin (Bio-Techne) at 4 °C for 16 hours to immobilize periostin. The SW480 cells expressing integrin αvβ3 (5×10^4 cells) were reacted at room temperature for 15 minutes with the above compounds at 0.001, 0.01, 0.1 and 1 μM in serum-free DMEM (Dulbecco's Modified Eagle Medium) containing 0.5% bovine serum albumin and 0.25 mM MnCl2. A group receiving no compound was used as a control. The reacted cell suspensions were added to separate wells of the above human periostin-immobilized plate, and the plate was centrifuged at 10×g for 5 minutes and then cultured at 37 °C for 60 minutes. Then, after the adhered cells were washed to remove unbound cells, the adhered cells were fixed with 1% formaldehyde and stained with 0.5% crystal violet. The fixed and stained cells were solubilized with 0.2% Triton X-100 and measured for absorbance at 595 nm. The absorbance of the control (i.e., the group receiving no compound) was set to 0% inhibition. […] Cell adhesion in this test system is periostin-dependent, and a compound inhibiting this cell adhesion can be referred to as a periostin receptor antagonist.

[3] = system: integrin αvβ3; settings: cited from earlier work
[4] = system: IL-31 receptor; settings: Kabashima K, et al. N Engl J Med. 383:141-150, 2020; cited from earlier work

T1 sequence (P06756 31-889 limits assumed): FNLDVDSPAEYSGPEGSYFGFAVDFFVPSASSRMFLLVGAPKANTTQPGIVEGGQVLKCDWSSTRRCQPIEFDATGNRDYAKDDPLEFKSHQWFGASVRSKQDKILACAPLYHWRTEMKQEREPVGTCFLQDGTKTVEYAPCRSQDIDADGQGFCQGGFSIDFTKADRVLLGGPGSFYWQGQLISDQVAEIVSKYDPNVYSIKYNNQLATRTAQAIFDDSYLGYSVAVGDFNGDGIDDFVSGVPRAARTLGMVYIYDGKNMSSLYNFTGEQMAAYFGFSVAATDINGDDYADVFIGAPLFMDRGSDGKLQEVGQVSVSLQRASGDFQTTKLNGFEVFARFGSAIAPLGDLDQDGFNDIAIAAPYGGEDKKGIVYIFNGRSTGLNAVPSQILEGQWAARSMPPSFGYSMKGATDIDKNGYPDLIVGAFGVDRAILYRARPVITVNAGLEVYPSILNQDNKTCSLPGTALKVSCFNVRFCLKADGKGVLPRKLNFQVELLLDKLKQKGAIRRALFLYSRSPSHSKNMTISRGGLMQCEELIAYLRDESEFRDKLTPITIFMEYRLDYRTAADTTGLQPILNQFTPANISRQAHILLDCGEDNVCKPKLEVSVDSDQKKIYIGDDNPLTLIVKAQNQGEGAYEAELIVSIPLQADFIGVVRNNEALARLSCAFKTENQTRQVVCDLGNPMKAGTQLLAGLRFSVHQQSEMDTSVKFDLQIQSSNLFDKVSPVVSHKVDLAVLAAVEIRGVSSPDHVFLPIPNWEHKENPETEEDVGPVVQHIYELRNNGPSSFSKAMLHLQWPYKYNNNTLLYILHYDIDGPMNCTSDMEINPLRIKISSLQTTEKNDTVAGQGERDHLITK
T1 sequence (P06756 891-1048 partner limits assumed): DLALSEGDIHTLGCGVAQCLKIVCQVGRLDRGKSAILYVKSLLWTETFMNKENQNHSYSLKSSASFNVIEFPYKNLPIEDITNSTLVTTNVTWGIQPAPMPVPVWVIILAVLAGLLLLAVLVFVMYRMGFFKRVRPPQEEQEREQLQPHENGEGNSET
T1 sequence (P05106 27-788): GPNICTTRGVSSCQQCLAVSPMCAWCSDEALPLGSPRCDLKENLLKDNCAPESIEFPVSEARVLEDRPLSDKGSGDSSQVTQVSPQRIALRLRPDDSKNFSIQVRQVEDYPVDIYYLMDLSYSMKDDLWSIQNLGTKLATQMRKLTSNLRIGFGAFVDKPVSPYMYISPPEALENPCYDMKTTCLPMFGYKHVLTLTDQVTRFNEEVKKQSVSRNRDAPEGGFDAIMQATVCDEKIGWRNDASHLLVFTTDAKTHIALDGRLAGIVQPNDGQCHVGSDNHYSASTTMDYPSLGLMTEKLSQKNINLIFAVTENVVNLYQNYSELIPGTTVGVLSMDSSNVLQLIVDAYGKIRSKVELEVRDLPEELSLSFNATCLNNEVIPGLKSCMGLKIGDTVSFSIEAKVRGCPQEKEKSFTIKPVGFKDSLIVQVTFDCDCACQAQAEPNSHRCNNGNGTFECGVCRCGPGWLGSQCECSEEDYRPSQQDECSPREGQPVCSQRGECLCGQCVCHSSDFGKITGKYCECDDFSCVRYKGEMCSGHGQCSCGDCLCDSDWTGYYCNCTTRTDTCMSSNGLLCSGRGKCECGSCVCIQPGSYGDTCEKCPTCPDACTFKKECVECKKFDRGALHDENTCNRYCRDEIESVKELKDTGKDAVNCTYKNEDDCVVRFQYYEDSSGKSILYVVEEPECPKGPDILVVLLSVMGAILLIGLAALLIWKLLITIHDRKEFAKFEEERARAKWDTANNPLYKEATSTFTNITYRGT

Molecule: CC(C)COC(=O)N[C@@H](CCC(=O)N1CCN(c2cccc(NC3=NCC(F)CN3)c2)CC1)C(=O)O (stereo partly drawn) [BS-1417, (2S)-5-(4-(3-((5-fluoro-1,4,5,6-tetrahydropyrimidin-2-yl)amino)phenyl)piperazin-1-yl)-2-((isobutoxycarbonyl)amino)-5-oxopentanoic acid]
% Change from baseline in the number of scratchings (mean ± standard error) [1]: −43.3 ± 11.9%
grade of effect on % change from the baseline in the number of scratchings [1]: + (mean change from the baseline was −60% or less at a P-value of less than 0.05)
IC50 [2]: ≥ 1000 nM

IC50 [2]: ≤ 1 nM
cell adhesion inhibitory effect (in words) [2]: high
Molecule: O=C(NC[C@H](NS(=O)(=O)c1ccccc1)C(=O)O)c1ccc(N2CCC(NC3=NCCCN3)CC2)c(F)c1 [CP derivative 2, (S)-3-(3-fluoro-4-(4-((1,4,5,6-tetrahydropyrimidin-2-yl)amino)piperidin-1-yl)benzamido)-2-(phenylsulfonamido)propanoic acid]
% Change from baseline in the number of scratchings (mean ± standard error) [1]: −30.2 ± 18.6%
grade of effect on % change from the baseline in the number of scratchings [1]: − (mean change from the baseline was −60% or less at a P-value of 0.05 or higher)

IC50 [2]: ≤ 1 nM
cell adhesion inhibitory effect (in words) [2]: high
Molecule: O=C(NC[C@H](NS(=O)(=O)c1ccccc1)C(=O)O)c1ccc(N2CCC[C@H](NC3=NCCCN3)C2)cc1F [CP derivative 7, (S)-3-(2-fluoro-4-((S)-3-((1,4,5,6-tetrahydropyrimidin-2-yl)amino)piperidin-1-yl)benzamido)-2-(phenylsulfonamido)propanoic acid]
% Change from baseline in the number of scratchings (mean ± standard error) [1]: −52.0 ± 26.6%
grade of effect on % change from the baseline in the number of scratchings [1]: − (mean change from the baseline was −60% or less at a P-value of 0.05 or higher)

IC50 [2]: ≤ 1 nM
cell adhesion inhibitory effect (in words) [2]: high
Molecule: O=C(NC[C@H](NS(=O)(=O)c1cccs1)C(=O)O)c1ccc(N2CCC[C@H](NC3=NCCCN3)C2)cc1 [CP derivative 9, (S)-3-(4-((S)-3-((1,4,5,6-tetrahydropyrimidin-2-yl)amino)piperidin-1-yl)benzamido)-2-(thiophene-2-sulfonamido)propanoic acid]
% Change from baseline in the number of scratchings (mean ± standard error) [1]: −24.5 ± 19.9%
grade of effect on % change from the baseline in the number of scratchings [1]: − (mean change from the baseline was −60% or less at a P-value of 0.05 or higher)

Molecule: CC(C)[C@H]1C(=O)N[C@@H](CCCNC(=N)N)C(=O)NCC(=O)N[C@@H](CC(=O)O)C(=O)N[C@H](Cc2ccccc2)C(=O)N1C [Cilengitide, 2-((2S,5R,8S,11S)-5-benzyl-11-(3-guanidinopropyl)-8-isopropyl-7-methyl-3,6,9,12,15-pentaoxo-1,4,7,10,13-pentaazacyclopentadecan-2-yl)acetic acid]
% Change from baseline in the number of scratchings (mean ± standard error) [1]: −31.7 ± 17.8%

IC50 [2]: ≥ 1000 nM
Molecule: O=C(O)C[C@H]1Cc2ccc(OCCCNc3ccccn3)cc2CN(CC(F)(F)F)C1=O [SB-267268 enantiomer, (R)-2-(3-oxo-8-(3-(pyridin-2-ylamino)propoxy)-2-(2,2,2-trifluoroethyl)-2,3,4,5-tetrahydro-1H-benzo[c]azepin-4-yl)acetic acid]
% Change from baseline in the number of scratchings (mean ± standard error) [1]: +45.5 ± 28.8%

IC50 [2]: ≤ 20 nM
cell adhesion inhibitory effect (in words) [2]: moderate
Molecule: O=C(O)C[C@@H]1Cc2ccc(OCCCNc3ccccn3)cc2CN(CC(F)(F)F)C1=O [SB-267268, (S)-2-(3-oxo-8-(3-(pyridin-2-ylamino)propoxy)-2-(2,2,2-trifluoroethyl)-2,3,4,5-tetrahydro-1H-benzo[c]azepin-4-yl)acetic acid]
% Change from baseline in the number of scratchings (mean ± standard error) [1]: −5.5 ± 13.4%
grade of effect on % change from the baseline in the number of scratchings [1]: − (mean change from the baseline was −60% or less at a P-value of 0.05 or higher)

IC50 [2]: ≤ 20 nM
cell adhesion inhibitory effect (in words) [2]: moderate
Molecule: CNc1cccc(CCOc2ccc3c(c2)CN(CC(F)(F)F)C(=O)[C@H](CC(=O)O)C3)n1 [SB-273005, (S)-2-(8-(2-(6-(methylamino)pyridin-2-yl)ethoxy)-3-oxo-2-(2,2,2-trifluoroethyl)-2,3,4,5-tetrahydro-1H-benzo[c]azepin-4-yl)acetic acid]
% Change from baseline in the number of scratchings (mean ± standard error) [1]: −33.0 ± 11.6%
grade of effect on % change from the baseline in the number of scratchings [1]: + (mean change from the baseline was −60% or less at a P-value of less than 0.05)

cell adhesion inhibitory effect (in words) [2]: moderate
Molecule: N=C(N)Nc1cccc(C(=O)NCC(=O)NC(CC(=O)O)c2cc(Cl)cc(Cl)c2)c1 (centres unmarked) [SC-68448, 3-(3,5-Dichlorophenyl)-3-(2-(3-guanidinobenzamido)acetamido)propanoic acid]
% Change from baseline in the number of scratchings (mean ± standard error) [1]: −83.8 ± 7.7%
grade of effect on % change from the baseline in the number of scratchings [1]: ++ (mean change from the baseline was −65% or more at a P-value of less than 0.01)
inhibition of binding between integrin αvβ3 and vitronectin [3]: inhibit binding

IC50 [2]: ≤ 100 nM
cell adhesion inhibitory effect (in words) [2]: low
Molecule: Cc1cc(C)c(S(=O)(=O)N[C@@H](CNC(=O)c2ccc3c(cnn3CCCNc3ncc[nH]3)c2)C(=O)O)c(C)c1 [SM-256, (S)-3-(1-(3-((1H-imidazol-2-yl)amino)propyl)-1H-indazole-5-carboxamido)-2-((2,4,6-trimethylphenyl)sulfonamido)propanoic acid]
% Change from baseline in the number of scratchings (mean ± standard error) [1]: −22.5 ± 19.6%

B1: nemolizumab: anti-IL-31 receptor antibody (antibody, chains of the INN, looked up)
heavy: QVQLVQSGAEVKKPGASVKVSCKASGYTFTGYIMNWVRQAPGQGLEWMGLINPYNGGTDYNPQFQDRVTITADKSTSTAYMELSSLRSEDTAVYYCARDGYDDGPYTLETWGQGTLVTVSSASTKGPSVFPLAPSSKSTSGGTAALGCLVKDYFPEPVTVSWNSGALTSGVHTFPAVLQSSGLYSLSSVVTVPSSNFGTQTYTCNVDHKPSNTKVDKTVERKSCVECPPCPAPPVAGPSVFLFPPKPKDTLMISRTPEVTCVVVDVSQEDPEVQFNWYVDGVEVHNAKTKPREEQFNSTFRVVSVLTVVHQDWLNGKEYKCKVSNKGLPAPIEKTISKTKGQPREPQVYTLPPSQEEMTKNQVSLTCLVKGFYPSDIAVEWESNGQPENNYKTTPPMLDSDGSFFLYSKLTVDKSRWQEGNVFSCSVMHEALHNHYTQKSLSLSP
light: DIQMTQSPSSLSASVGDRVTITCQASEDIYSFVAWYQQKPGKAPKLLIYNAQTEAQGVPSRFSGSGSGTDFTLTISSLQPEDFATYYCQHHYDSPLTFGGGTKVEIKRTVAAPSVFIFPPSDEQLKSGTASVVCLLNNFYPREAKVQWKVDNALQSGNSQESVTEQDSKDSTYSLSSTLTLSKADYEKHKVYACEVTHQGLSSPVTKSFNRGEC
pruritus [4]: improve pruritus
skin inflammation [4]: improving effect on skin inflammation
